From ChEMBL document CHEMBL1131369, “Isoxazolylthioamides as potential immunosuppressants a combinatorial chemistry approach” (Bioorg Med Chem Lett, 1998)

molecular target: Dihydroorotate dehydrogenase (quinone), mitochondrial (Homo sapiens, UniProt Q02127); assay: Immunosuppressive activity expressed as ability to inhibit human recombinant dihydroorotate dehydrogenase (DHODH)
Sequence (Q02127 whole entry): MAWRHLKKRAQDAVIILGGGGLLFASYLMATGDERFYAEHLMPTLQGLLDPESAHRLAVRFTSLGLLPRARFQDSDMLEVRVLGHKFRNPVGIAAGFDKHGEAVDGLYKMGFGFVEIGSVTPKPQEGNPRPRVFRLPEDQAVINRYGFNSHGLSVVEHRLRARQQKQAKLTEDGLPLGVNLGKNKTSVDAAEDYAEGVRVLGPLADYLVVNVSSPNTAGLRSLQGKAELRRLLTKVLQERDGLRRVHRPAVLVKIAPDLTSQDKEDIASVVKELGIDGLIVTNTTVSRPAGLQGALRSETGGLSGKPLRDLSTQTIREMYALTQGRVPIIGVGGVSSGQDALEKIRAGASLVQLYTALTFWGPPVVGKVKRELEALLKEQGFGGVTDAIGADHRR

IC50	SMILES
> 50 µM	FC(F)(F)Oc1ccc(NC(=S)c2cnoc2C2CCCCC2)cc1
3 µM	CCc1oncc1/C(S)=N/c1ccc(C(F)(F)F)cc1
> 50 µM	CC(C)(C)c1oncc1/C(S)=N/c1ccc(C(F)(F)F)cc1
> 50 µM	CN(C)c1ccc(NC(=S)c2cnoc2C2CCCCC2)cc1
9.3 µM	N#Cc1ccc(NC(=S)c2cnoc2C2CC2)cc1
> 50 µM	CN(C)c1ccc(NC(=S)c2cnoc2C(C)(C)C)cc1
35 µM	Cc1oncc1C(=S)Nc1ccc(C#N)cc1
0.7 µM	CCc1oncc1/C(S)=N/c1ccc(OC(F)(F)F)cc1
> 50 µM	CCCCCCc1oncc1/C(S)=N/c1ccc(C(F)(F)F)cc1
> 50 µM	CN(C)c1ccc(NC(=S)c2cnoc2C2CC2)cc1
40.4 µM	CCc1oncc1/C(S)=N/c1ccc(N(C)C)cc1
> 50 µM	CC(C)(C)c1oncc1/C(S)=N/c1ccc(C#N)cc1
> 50 µM	CCCCCCc1oncc1/C(S)=N/c1ccc(OC(F)(F)F)cc1
> 50 µM	Cc1oncc1C(=S)Nc1ccc(C(F)(F)F)cc1
> 50 µM	Cc1oncc1C(=S)Nc1ccc(N(C)C)cc1
7.2 µM	Cc1oncc1/C(S)=N/c1ccc(OC(F)(F)F)cc1
0.8 µM	CC(=O)/C(C#N)=C(/S)Nc1ccc(C(F)(F)F)cc1
3.2 µM	FC(F)(F)c1ccc(NC(=S)c2cnoc2C2CC2)cc1
11 µM	CCc1oncc1C(=S)Nc1ccc(C#N)cc1
> 50 µM	N#Cc1ccc(NC(=S)c2cnoc2C2CCCCC2)cc1
> 50 µM	FC(F)(F)c1ccc(NC(=S)c2cnoc2C2CCCCC2)cc1
> 50 µM	CCCCCCc1oncc1C(=S)Nc1ccc(N(C)C)cc1
> 50 µM	CC(C)(C)c1oncc1C(=S)Nc1ccc(OC(F)(F)F)cc1
> 50 µM	CCCCCCc1oncc1C(=S)Nc1ccc(C#N)cc1

SMILES	IC50
FC(F)(F)Oc1ccc(NC(=S)c2cnoc2C2CC2)cc1	0.8 µM

species on record: Mus musculus; assay: Compound was tested in vitro for immunosuppressive activity which was measured in the mouse mixed lymphocyte reaction; assay type: functional

IC50	SMILES
23 µM	Cc1oncc1C(=S)Nc1ccc(C(F)(F)F)cc1
11 µM	CC(=O)/C(C#N)=C(/S)Nc1ccc(C(F)(F)F)cc1
10 µM	C/C(O)=C(/C#N)C(=O)Nc1ccc(C(F)(F)F)cc1
